# The source made the active and inactive calls. How the calls were made is not given here.
# Tested on: 697B B-cell line, NF-kB luciferase reporter luminescence
# Experiment: NF-kB reporter inhibition in B cells, dose response, selectivity assay for T-cell antigen receptor NF-kB inhibitors, 697B cells, luminescence (AID 489033)
row,Structure (SMILES),IC50
1,COc1ccc(NC(=O)C(=O)NCC2CCCN2S(=O)(=O)c2cccs2)cc1 (stereo not drawn),> 80 µM (inactive)
2,O=[N+]([O-])c1ccc(Sc2ccc(Cl)c(Cl)c2)nc1,13.1 µM
3,COc1ccc(/C=N/NC(=O)COc2ccccc2-c2ccccc2)cc1,76.2 µM (inactive)
4,O=C1/C(=C/c2ccc(N3CCOCC3)o2)SC(=Nc2ccccc2)N1CCc1c[nH]c2ccccc12,12.8 µM
5,COC(=O)Nc1ccc(S(=O)(=O)N2c3ccccc3CCC2C)cc1 (stereo not drawn),> 80 µM (inactive)
6,Cc1ccc2[nH]c(-c3cccc(F)c3)cc(=O)c2c1,> 80 µM (inactive)
7,COc1ccc(Br)cc1/C(C)=N/NC1=NCCN1,> 80 µM (inactive)
8,C=CCSc1nc2ccccc2n1C(=O)/C=C/c1cc(OC)c(OC)c(OC)c1,> 80 µM (inactive)
9,COc1cc2c(cc1O)CC[C@@H]1[C@@H]2CC[C@]2(C)[C@@H](O)CC[C@@H]12,> 80 µM (inactive)
10,Nc1nc2n[nH]nc2c(=O)[nH]1,2.56 µM
11,CCN(CC)c1ccc(/C=N/NC(=O)c2nnn(-c3nonc3N)c2C(C)C)c(O)c1,1.5 µM
12,CC1=C(C(=O)OCc2ccc3c(c2)OCO3)C(c2ccc(Cl)cc2)NC(=O)N1 (stereo not drawn),0.46 µM
13,CCOCCCNC(=O)c1ccc2c(c1)N=C(CC)c1cc(Br)ccc1S2,> 80 µM (inactive)
14,N#Cc1ccc(-c2cccs2)nc1SCc1cccnc1,> 80 µM (inactive)
15,CC1(C)CC(N2CCN(C(c3ccccc3)c3ccccc3)CC2)=CC(=[N+]2CCCCC2)C1,1.64 µM
16,NS(=O)(=O)c1ccc(Sc2nc3ccccc3s2)c([N+](=O)[O-])c1,1.34 µM
17,O=C1C=C(c2ccc3ncccc3c2)C[C@@H](c2ccc3c(c2)OCO3)C1,> 80 µM (inactive)
18,CCOC(=O)c1[nH]c(C)c(C(=O)Nc2ccccc2C)c1C,40.3 µM (inactive)
19,Nc1nc(-c2ccccc2)cc(N2CCCCC2)n1,> 80 µM (inactive)

row,Structure (SMILES),IC50
1,CCc1ccc(/C=N/NC(=O)c2cc(-c3ccncc3)nc3ccccc23)s1,4.09 µM
2,CCCc1cc(C(=O)N/N=C/c2ccc(CC)s2)c2ccccc2n1,11.6 µM
3,COc1cc(-c2noc(C)c2-c2ccc3[nH]ccc3c2)cc(OC)c1OC,> 80 µM (inactive)
4,Cc1ccc(C(=O)Nc2cnc3ccccc3c2)cc1,7.31 µM
5,O=C(c1ccccc1-c1ccccc1)N1CCN(c2ccccn2)CC1,> 80 µM (inactive)
6,Cc1ccc(C(=O)Nc2ncc(Cc3ccc(SC(F)F)cc3)s2)cc1,> 80 µM (inactive)
7,COc1ccc(OC)c(-c2nnc3n2N=C(c2ccc(OC)c(OC)c2)CS3)c1,55.2 µM (inactive)
8,C[C@]12CCC3C(CCC4=CC(O)CC[C@@]43/C=N/O)C1(O)CCC2C1=CC(=O)OC1 (stereo partly drawn),2.58 µM
9,CC(C)Cn1c(N)c(C(=O)CSc2ccc3c(c2)OCCO3)c(=O)n(C)c1=O,51.7 µM (inactive)
10,COC(=O)C(Cc1ccc(N(CCCl)CCCl)cc1)N=Cc1ccccc1O (stereo not drawn),0.31 µM
11,CCOC(=O)c1[nH]c(C)c(C(=O)Nc2cc(Cl)ccc2C)c1C,> 80 µM (inactive)
12,CC(=O)O[C@@]12CO[C@@H]1C[C@H](O)[C@@]1(C)C(=O)[C@H](O)C3=C(C)[C@@H](OC(=O)[C@H](O)[C@@H](NC(=O)c4ccccc4)c4ccccc4)C[C@@](O)([C@@H](OC(=O)c4ccccc4)C12)C3(C)C (stereo partly drawn),> 80 µM (inactive)
13,CC(=O)c1c(C)[nH]c(C(=O)OCC(=O)Nc2ccc(C)cc2[N+](=O)[O-])c1C,11.3 µM
14,Cc1cccc(N2CCN(C(=O)c3c(-c4ccccc4)noc3C)CC2)c1C,> 80 µM (inactive)
15,CCSc1nc2ccccc2n1C(=O)/C=C\c1ccc(OC)c(OC)c1,4.67 µM
16,O=C(CNC(=O)c1ccco1)N=Nc1c(O)n(CCc2ccccc2)c2ccccc12,> 80 µM (inactive)
17,O=C(Nc1ccc(S(=O)(=O)Nc2ccccc2)cc1)c1ccc(CN2CCOCC2)cc1,46.1 µM (inactive)
18,COc1ccccc1NC(=O)Cn1nnc(C(=O)NCc2cccs2)c1N,> 80 µM (inactive)
19,COc1cccc(N/C(N)=N/c2nc(CSc3ccccn3)cc(=O)[nH]2)c1,> 80 µM (inactive)

# From PubChem BioAssay AID489033 (Sanford-Burnham Center for Chemical Genomics, 2010)
